This passage reports HSA binding and AMP results from PMC6816013 (Journal of Medicinal Chemistry, 2019).

Structures are written as SMILES. Where a name gives a salt, the structure may show the parent alone. A value given as a limit tells only on which side of the number the result lay.

Chain of HSA (P02768 25-609): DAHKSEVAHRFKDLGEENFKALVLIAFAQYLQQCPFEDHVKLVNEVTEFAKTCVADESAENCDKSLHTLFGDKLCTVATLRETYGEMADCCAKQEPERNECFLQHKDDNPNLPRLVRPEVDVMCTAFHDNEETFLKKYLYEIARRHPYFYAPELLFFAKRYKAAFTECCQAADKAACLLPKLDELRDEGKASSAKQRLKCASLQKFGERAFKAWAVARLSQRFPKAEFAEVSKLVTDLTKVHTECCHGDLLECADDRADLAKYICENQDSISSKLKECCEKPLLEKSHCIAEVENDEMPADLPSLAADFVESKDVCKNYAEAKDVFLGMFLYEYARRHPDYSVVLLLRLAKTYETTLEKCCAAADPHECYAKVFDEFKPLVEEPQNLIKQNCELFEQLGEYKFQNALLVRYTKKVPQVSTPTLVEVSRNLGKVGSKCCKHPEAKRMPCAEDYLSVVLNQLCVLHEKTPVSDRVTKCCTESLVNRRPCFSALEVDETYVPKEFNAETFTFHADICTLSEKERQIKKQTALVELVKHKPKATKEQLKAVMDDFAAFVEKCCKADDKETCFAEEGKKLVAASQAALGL

One data set has as its target HSA (Homo sapiens, UniProt P02768). The experiment in a line: HSA binding (plasma protein binding). The class given is in vitro ADME.
Settings: not given
`CN1CCC(Nc2nccc(-c3sc(C4CCNCC4)nc3-c3ccc(F)cc3)n2)C1` (stereo not drawn) [Compound 52, 4-[4-(4-Fluorophenyl)-2-(piperidin-4-yl)-1,3-thiazol-5-yl]-N-(1-methylpyrrolidin-3-yl)pyrimidin-2-amine] showed an HSA binding of 89%.

`CN1CCN(CCNc2nccc(-c3sc(C4CCNCC4)nc3-c3ccc(F)cc3)n2)CC1` [Compound 48, 4-[4-(4-Fluorophenyl)-2-(piperidin-4-yl)-1,3-thiazol-5-yl]-N-[2-(4-methylpiperazin-1-yl)ethyl]pyrimidin-2-amine] registered an HSA binding of 90%.

Consider `COCCNc1nccc(-c2sc(C3CCNCC3)nc2-c2ccc(F)cc2)n1` [Compound 43, 4-[4-(4-Fluorophenyl)-2-(piperidin-4-yl)-1,3-thiazol-5-yl]-N-(2-methoxyethyl)pyrimidin-2-amine], for which the HSA binding turned out to be 80%.

Compound `Fc1ccc(-c2nc(C3CCNCC3)sc2-c2ccnc(Nc3cccnn3)n2)cc1` [Compound 27, N-(4-(4-(4-Fluorophenyl)-2-(piperidin-4-yl)thiazol-5-yl)pyrimidin-2-yl)pyridazin-3-amine] had an HSA binding of 90%.

With `CN(C)CCNc1nccc(-c2sc(C3CCNCC3)nc2-c2ccc(F)cc2)n1` [Compound 45, N′-{4-[4-(4-Fluorophenyl)-2-(piperidin-4-yl)-1,3-thiazol-5-yl]pyrimidin-2-yl}-N,N-dimethylethane-1,2-diamine], the HSA binding was 83%.

`Fc1ccc(-c2nc(C3CCNCC3)sc2-c2ccnc(N3CCC(N4CCOCC4)CC3)n2)cc1` [Compound 56, 4-(1-(4-(4-(4-Fluorophenyl)-2-(piperidin-4-yl)thiazol-5-yl)pyrimidin-2-yl)piperidin-4-yl)morpholine]: the HSA binding is given as 90%.

With `Fc1ccc(-c2nc(C3CCNCC3)sc2-c2ccnc(Nc3nncs3)n2)cc1` [Compound 19, N-(4-(4-(4-Fluorophenyl)-2-(piperidin-4-yl)thiazol-5-yl)pyrimidin-2-yl)-1,3,4-thiadiazol-2-amine], the HSA binding is given as 92%.

As for `Fc1ccc(-c2nc(C3CCNCC3)sc2-c2ccnc(NCCN3CCCC3)n2)cc1` [Compound 47, 4-[4-(4-Fluorophenyl)-2-(piperidin-4-yl)-1,3-thiazol-5-yl]-N-[2-(pyrrolidin-1-yl)ethyl]pyrimidin-2-amine], the HSA binding turned out to be 86%.

`Fc1ccc(-c2nc(C3CCNCC3)sc2-c2ccnc(N3CCC(N4CCC4)CC3)n2)cc1` [Compound 55, 2-[4-(Azetidin-1-yl)piperidin-1-yl]-4-[4-(4-fluorophenyl)-2-(piperidin-4-yl)-1,3-thiazol-5-yl]pyrimidine] came in with an HSA binding of 90%.

The compound `Fc1ccc(-c2nc(C3CCNCC3)sc2-c2ccnc(NCC3CCCO3)n2)cc1` (stereo not drawn) [Compound 44, 4-[4-(4-Fluorophenyl)-2-(piperidin-4-yl)-1,3-thiazol-5-yl]-N-(tetrahydrofuran-2-ylmethyl)pyrimidin-2-amine] registered an HSA binding of 86%.

In the case of `Nc1nccc(-c2sc(C3CCNCC3)nc2-c2ccc(F)cc2)n1` [Compound 41, 4-[4-(4-Fluorophenyl)-2-(piperidin-4-yl)-1,3-thiazol-5-yl]pyrimidin-2-amine], the HSA binding worked out at 75%.

The compound `Fc1ccc(-c2nc(C3CCNCC3)sc2-c2ccnc(N3CCC(CN4CCOCC4)CC3)n2)cc1` [Compound 57, 4-((1-(4-(4-(4-Fluorophenyl)-2-(piperidin-4-yl)thiazol-5-yl)pyrimidin-2-yl)piperidin-4-yl)methyl)morpholine] had an HSA binding of 93%.

For the compound `CCOC(=O)N1CCC(c2nc(-c3ccc(F)cc3)c(-c3ccnc(Nc4ccc(N5CCN(C)CC5)cc4)n3)s2)CC1` [Compound 8], the HSA binding came to 98%.

`OC1CCN(c2nccc(-c3sc(C4CCNCC4)nc3-c3ccc(F)cc3)n2)C1` (stereo not drawn) [Compound 54, 1-{4-[4-(4-Fluorophenyl)-2-(piperidin-4-yl)-1,3-thiazol-5-yl]pyrimidin-2-yl}pyrrolidin-3-ol] displayed an HSA binding of 85%.

In the case of `O[C@H]1CC[C@H](Nc2nccc(-c3sc(C4CCNCC4)nc3-c3ccc(F)cc3)n2)CC1` [Compound 51, trans-4-({4-[4-(4-Fluorophenyl)-2-(piperidin-4-yl)-1,3-thiazol-5-yl]pyrimidin-2-yl}amino)cyclohexanol], the HSA binding amounted to 85%.

`Nc1nc(-c2ccc(F)cc2)c(-c2ccnc(Nc3ccc(N4CCNCC4)cc3)n2)s1` [Compound 12, 4-[2-Amino-4-(4-fluorophenyl)-1,3-thiazol-5-yl]-N-[4-(piperazin-1-yl)phenyl]pyrimidin-2-amine] displayed an HSA binding of 98%.

`CN(C)C(CNc1nccc(-c2sc(C3CCNCC3)nc2-c2ccc(F)cc2)n1)C1CC1` (stereo not drawn) [Compound 46, 1-Cyclopropyl-N′-{4-[4-(4-fluorophenyl)-2-(piperidin-4-yl)-1,3-thiazol-5-yl]pyrimidin-2-yl}-N,N-dimethylethane-1,2-diamine] registered an HSA binding of 91%.

For `OCCNc1nccc(-c2sc(C3CCNCC3)nc2-c2ccc(F)cc2)n1` [Compound 42, 2-({4-[4-(4-Fluorophenyl)-2-(piperidin-4-yl)-1,3-thiazol-5-yl]pyrimidin-2-yl}amino)ethanol], the HSA binding stood at 79%.

The compound `Cc1nc(Nc2nccc(-c3sc(C4CCNCC4)nc3-c3ccc(F)cc3)n2)cc(C2CCC2)c1F` [Compound 38, N-(4-Cyclobutyl-5-fluoro-6-methylpyridin-2-yl)-4-(4-(4-fluorophenyl)-2-(piperidin-4-yl)thiazol-5-yl)pyrimidin-2-amine] had an HSA binding of 98%.

Consider `CCc1cc(Nc2nccc(-c3sc(C4CCNCC4)nc3-c3ccc(F)cc3)n2)nc(C)c1F` [Compound 36, N-(4-Ethyl-5-fluoro-6-methylpyridin-2-yl)-4-(4-(4-fluorophenyl)-2-(piperidin-4-yl)thiazol-5-yl)pyrimidin-2-amine], for which the HSA binding is 97%.

Turning to `Fc1ccc(-c2nc(C3CCNCC3)sc2-c2ccnc(N3CCCC3)n2)cc1` [Compound 53, 4-[4-(4-Fluorophenyl)-2-(piperidin-4-yl)-1,3-thiazol-5-yl]-2-(pyrrolidin-1-yl)pyrimidine], the HSA binding is listed as 93%.

`Fc1ccc(-c2nc(C3CCNCC3)sc2-c2ccnc(NCCN3CCOCC3)n2)cc1` [Compound 49, 4-(4-(4-Fluorophenyl)-2-(piperidin-4-yl)thiazol-5-yl)-N-(2-morpholinoethyl)pyrimidin-2-amine] showed an HSA binding of 83%.

Tested on in another data set: not given
Assay: not given
As to conditions: PAMPA.
The compound `CCCS(=O)(=O)Nc1nc(-c2ccc(F)cc2)c(-c2ccnc(Nc3ccc(N4CCNCC4)cc3)n2)s1` [Compound 17, N-[4-(4-Fluorophenyl)-5-{2-[4-(piperazin-1-yl)anilino]pyrimidin-4-yl}-1,3-thiazol-2-yl]propane-1-sulfonamide Trifluoroacetate] yielded an AMP of 0.3.

Take `c1cc(Nc2nccc(-c3sc(C4CCNCC4)nc3C3CC3)n2)ncn1` [Compound 58, 4-(4-Cyclopropyl-2-(piperidin-4-yl)thiazol-5-yl)-N-(pyrimidin-4-yl)pyrimidin-2-amine Hydrochloride]: the AMP is listed as 1.8.

For the compound `Fc1ccc(-c2nc(N3CCOCC3)sc2-c2ccnc(Nc3ccc(N4CCNCC4)cc3)n2)cc1` [Compound 9, 4-[4-(4-Fluorophenyl)-2-(morpholin-4-yl)-1,3-thiazol-5-yl]-N-[4-(piperazin-1-yl)phenyl]pyrimidin-2-amine Trifluoroacetate], the AMP amounted to 2.8.

`O=S(=O)(Nc1nc(-c2ccc(F)cc2)c(-c2ccnc(Nc3ccc(N4CCNCC4)cc3)n2)s1)C1CCNCC1` [Compound 18, N-[4-(4-Fluorophenyl)-5-{2-[4-(piperazin-1-yl)anilino]pyrimidin-4-yl}-1,3-thiazol-2-yl]piperidine-4-sulfonamide Trifluoroacetate] registered an AMP of 0.3.

`O=C(Nc1nc(-c2ccc(F)cc2)c(-c2ccnc(Nc3ccc(N4CCNCC4)cc3)n2)s1)C1CC1` [Compound 15, N-[4-(4-Fluorophenyl)-5-{2-[4-(piperazin-1-yl)anilino]pyrimidin-4-yl}-1,3-thiazol-2-yl]cyclopropanecarboxamide Trifluoroacetate]: the AMP is recorded as 0.2.

Turning to `COc1cc(Nc2nccc(-c3sc(C4CCNCC4)nc3-c3ccc(F)cc3)n2)cc(C)n1` [Compound 34, 4-[4-(4-Fluorophenyl)-2-(piperidin-4-yl)-1,3-thiazol-5-yl]-N-(2-methoxy-6-methylpyridin-4-yl)pyrimidin-2-amine Trifluoroacetate], the AMP amounted to 1.9.

`Fc1ccc(-c2nc(N3CCCC3)sc2-c2ccnc(Nc3ccc(N4CCNCC4)cc3)n2)cc1` [Compound 10, 4-[4-(4-Fluorophenyl)-2-(pyrrolidin-1-yl)-1,3-thiazol-5-yl]-N-[4-(piperazin-1-yl)phenyl]pyrimidin-2-amine Trifluoroacetate] yielded an AMP of 2.7.

The compound `CN1CCC(C(=O)Nc2nc(-c3ccc(F)cc3)c(-c3ccnc(Nc4ccc(N5CCNCC5)cc4)n3)s2)CC1` [Compound 16, N-[4-(4-Fluorophenyl)-5-{2-[4-(piperazin-1-yl)anilino]pyrimidin-4-yl}-1,3-thiazol-2-yl]-1-methylpiperidine-4-carboxamide Trifluoroacetate] displayed an AMP of 0.1.

`CN1CCN(c2ccc(Nc3nccc(-c4sc(N)nc4-c4ccc(F)cc4)n3)cc2)CC1` [Compound 11, 4-[2-Amino-4-(4-fluorophenyl)-1,3-thiazol-5-yl]-N-[4-(4-methylpiperazin-1-yl)phenyl]pyrimidin-2-amine Trifluoroacetate] had an AMP of 2.6.

The compound `CCOc1nccc(Nc2nccc(-c3sc(C4CCNCC4)nc3-c3ccc(F)cc3)n2)n1` [Compound 30, N-(2-Ethoxypyrimidin-4-yl)-4-[4-(4-fluorophenyl)-2-(piperidin-4-yl)-1,3-thiazol-5-yl]pyrimidin-2-amine Trifluoroacetate] came in with an AMP of 1.7.

The compound `Oc1cc(Nc2nccc(-c3sc(C4CCNCC4)nc3-c3ccc(F)cc3)n2)ccn1` [Compound 33, 4-({4-[4-(4-Fluorophenyl)-2-(piperidin-4-yl)-1,3-thiazol-5-yl]pyrimidin-2-yl}amino)pyridin-2-ol Trifluoroacetate] showed an AMP of 0.2.

The same data set, now with this note: Tables 1 and 4.
`Nc1nccc(-c2sc(C3CCNCC3)nc2-c2ccc(F)cc2)n1` [Compound 41, 4-[4-(4-Fluorophenyl)-2-(piperidin-4-yl)-1,3-thiazol-5-yl]pyrimidin-2-amine] yielded an AMP of 1.3e-05 cm/s.

The same data set, now with this note: Tables 2 and 5.
In turn, `Fc1ccc(-c2nc(C3CCNCC3)sc2-c2ccnc(Nc3cccnn3)n2)cc1` [Compound 27, N-(4-(4-(4-Fluorophenyl)-2-(piperidin-4-yl)thiazol-5-yl)pyrimidin-2-yl)pyridazin-3-amine] yielded an AMP of 1.9e-06 cm/s.

`Fc1ccc(-c2nc(C3CCNCC3)sc2-c2ccnc(Nc3nncs3)n2)cc1` [Compound 19, N-(4-(4-(4-Fluorophenyl)-2-(piperidin-4-yl)thiazol-5-yl)pyrimidin-2-yl)-1,3,4-thiadiazol-2-amine] gave an AMP of under 1e-07 cm/s.
